# Assay results reported in patent US9102648B1, “Bioavailable diacylhydrazine ligands for modulating the expression of exogenous genes via an ecdysone receptor complex” (Intrexon Corporation, priority 2003, dated 2015).
# Read-outs that look alike come from different tables or passages of the source.
# Legend:
# [1] = molecular target: T1, Bombyx mori EcR (VP16 fusion, CVBE switch construct) (Bombyx mori, UniProt P49881); experiment: Z3 Assay (HEK-293 cells with CVBE and 6XEcRE LacZ, β-galactosidase reporter); settings: for Fold Induction, Z3 Assay, 3.3 uM: 3.3 uM ligand; for Fold Induction, Z3 Assay, 3.3 uM / Fold Induction, Z3 Assay, 33 uM: ligand treated / DMSO treated cells; for Fold Induction, Z3 Assay, 33 uM: 33 uM ligand; for Z3 assay Rel Max FI: maximum fold induction at any concentration relative to that of GS-E ligand; for fold induction at 3.3 µM: HEK293, read-out: Fold Induction, Z3 Assay, 3.3 uM
# T1 sequence (P49881 86-606): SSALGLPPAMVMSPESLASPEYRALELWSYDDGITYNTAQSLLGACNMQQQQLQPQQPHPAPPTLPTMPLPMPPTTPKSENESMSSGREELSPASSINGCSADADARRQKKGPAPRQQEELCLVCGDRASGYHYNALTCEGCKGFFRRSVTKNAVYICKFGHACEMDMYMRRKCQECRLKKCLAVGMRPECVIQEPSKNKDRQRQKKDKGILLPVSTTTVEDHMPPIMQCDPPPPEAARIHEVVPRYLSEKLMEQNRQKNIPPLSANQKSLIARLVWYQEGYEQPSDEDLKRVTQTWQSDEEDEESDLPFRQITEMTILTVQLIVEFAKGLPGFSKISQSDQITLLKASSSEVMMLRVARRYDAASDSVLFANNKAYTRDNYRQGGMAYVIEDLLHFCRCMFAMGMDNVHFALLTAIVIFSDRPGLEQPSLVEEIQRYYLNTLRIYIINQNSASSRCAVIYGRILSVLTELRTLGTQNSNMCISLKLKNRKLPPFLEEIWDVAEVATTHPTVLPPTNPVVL
# T1 sequence (P19793 1-462 partner): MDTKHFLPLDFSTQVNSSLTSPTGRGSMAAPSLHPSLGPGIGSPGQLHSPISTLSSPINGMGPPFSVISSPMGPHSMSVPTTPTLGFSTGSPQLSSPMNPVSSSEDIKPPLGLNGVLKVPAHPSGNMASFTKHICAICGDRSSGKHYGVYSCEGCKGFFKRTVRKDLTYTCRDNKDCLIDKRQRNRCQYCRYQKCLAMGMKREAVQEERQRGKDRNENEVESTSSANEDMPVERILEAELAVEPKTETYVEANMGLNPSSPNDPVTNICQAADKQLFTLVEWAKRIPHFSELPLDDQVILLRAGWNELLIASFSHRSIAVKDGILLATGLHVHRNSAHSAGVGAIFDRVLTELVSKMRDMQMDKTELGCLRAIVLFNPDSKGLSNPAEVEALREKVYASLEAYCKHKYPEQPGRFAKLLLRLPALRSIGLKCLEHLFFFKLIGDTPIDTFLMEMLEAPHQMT
# [2] = molecular target: GAL4 DBD-CfEcR(DEF)/VP16AD-MmRXRE (Choristoneura fumiferana, UniProt O77240); experiment: 13B3 Assay (CHO stable cell line, luciferase reporter); settings: for Fold Induction, 13B3 Assay, 3.3 uM: 3.3 uM ligand; for Fold Induction, 13B3 Assay, 3.3 uM / Fold Induction, 13B3 Assay, 33 uM: RLU ligand treated / RLU DMSO treated cells; for Fold Induction, 13B3 Assay, 33 uM: 33 uM ligand; for 13B3 assay Rel Max FI: maximum fold induction at any concentration relative to that of GS-E ligand, CHO 13B3 cells; for fold induction at 3.3 µM: read-out: Fold Induction, 13B3 Assay, 3.3 uM; for fold induction at 33 µM: read-out: Fold Induction, 13B3 Assay, 33 uM
# Procedure, shortened: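 Ligands dosed at 8 levels from 33 to 0.01 μM (DMSO stocks diluted 300-fold) onto the 13B3 CHO line carrying GAL4-DBD/CfEcR-DEF, VP16/MmRXR-DE and a GAL4-responsive luciferase gene.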
# [3] = read-out: Z3 assay EC50, HEK-293 Z3 cells, β-galactosidase reporter, average of two wells
# [4] = read-out: 13B3 EC50, CHO 13B3 stable cell line, luciferase reporter, 48 h, average of two wells
SMILES,"Fold Induction, Z3 Assay, 3.3 uM ([1]; average of two wells)","Fold Induction, Z3 Assay, 33 uM ([1]; average of two wells)",Z3 assay Rel Max FI ([1]; HEK-293 Z3 cells),"EC50 [1, 3] [nM]","Fold Induction, 13B3 Assay, 3.3 uM ([2]; average of two wells)","Fold Induction, 13B3 Assay, 33 uM ([2]; average of two wells)",13B3 assay Rel Max FI [2],"EC50 [2, 4] [nM]",EC50 [1] [nM],fold induction at 3.3 µM [1],EC50 [2] [nM],fold induction at 3.3 µM [2],fold induction at 33 µM [2],"fold induction at 33 µM ([1]; HEK293, read-out: Fold Induction, Z3 Assay, 33 uM)"
CCc1c(C(=O)NN(C(=O)c2cc(F)ccc2F)C(C)(C)C)ccc2c1OCCO2 [RG-115508],199,680,0.787,537,310,191,0.805,849,,,,,,
CCc1c(OC)cccc1C(=O)NN(C(=O)c1cc(C)cc(C)c1)C(C)(C)C=NCCO [RG-115511],10,570,0.66,39000,1,98,0.07,> 50000,,,,,,
CCc1c(C(=O)NN(C(=O)c2ccc(Cl)cc2F)C(C)(C)C)ccc2c1OCCO2 [RG-115514],383,658,0.970,56,4009,515,0.550,541,,,,,,
"COc1ccc(C(=O)N(NC(=O)c2ccc3c(c2C)OCCO3)C(C)(C)C)c(OC)n1 [RG-115517, 2,6-dimethoxy-nicotinic acid N-tert-butyl-N′-(5-methyl-2,3-dihydro-benzo[1,4]dioxine-6-carbonyl)-hydrazide]",,,0.923,,,,0.675,,89,408,355,8400,12000,
Cc1c(C(=O)NN(C(=O)c2cc(F)c(F)c(F)c2F)C(C)(C)C)ccc2c1CCCO2 [RG-115518],232,803,0.834,257,1644,926,0.648,1250,,,,,,
Cc1c(C(=O)NN(C(=O)c2cc(F)c(Cl)cc2Cl)C(C)(C)C)ccc2c1CCCO2 [RG-115539],,339,,151,20,592,0.955,5000,,,,,,
COc1ccc(Cl)cc1C(=O)N(NC(=O)c1ccc2c(c1C)CCCO2)C(C)(C)C [RG-115551],,470,,398,,290,,,,,,,,
"Cc1c(C(=O)NN(C(=O)c2cc(F)c(F)c(F)c2)C(C)(C)C)ccc2c1CCCO2 [RG-115575, 3,4,5-Trifluoro-benzoic acid N-tert-butyl-N′-(5-methyl-chroman-6-carbonyl)-hydrazide]",,,0.886,,,,0.641,,102,282,271,3080,865,785
CCc1c(C(=O)NN(C(=O)c2ccc(F)c(F)c2F)C(C)(C)C)ccc2c1OCCO2 [RG-115580],,615,,182,,298,,,,,,,,
COc1cnccc1C(=O)N(NC(=O)c1cccc(O)c1C)C(C)(C)C [RG-115595],44,1067,0.686,5620,6,1381,,,,,,,,
"CCc1c(OC)cccc1C(=O)NN(C(=O)c1cc(C)cc(C)c1)C(C)(C)C=NNC(=O)C(N)=O [RG-115597, oxamic carbazide of 2-ethyl-3-methoxy-benzoic acid N′-(3,5-dimethyl-benzoyl)-N′-(1,1-dimethyl-2-oxo-ethyl)-hydrazide]",,942,,,,4667,,,,,,,,
"CCc1c(OC)cccc1C(=O)NN(C(=O)c1cc(C)cc(C=NNC(=O)C(N)=O)c1)C(C)(C)C [RG-115613, oxamic hydrazone of N-(3-formyl-5-methyl-benzoyl)-N-tert-butyl-N′-(2-ethyl-3-methoxy-benzoyl) hydrazide]",991,1469,0.964,589,180,1726,0.734,5940,,,,,,
"COc1cc(C(=O)N(NC(=O)c2ccc3c(c2C)OCCO3)C(C)(C)C)cc(OC)c1C [RG-115637, 5-Methyl-2,3-dihydro-benzo[1,4]dioxine-6-carboxylic acid N′-tert-butyl-N′-(3,5-dimethoxy-4-methyl-benzoyl)-hydrazide]",,,0.947,,,,1.002,,18,211,88,1110,636,
CCc1c(OC)cccc1C(=O)NN(C(=O)c1ccc(Cl)cc1[N+](=O)[O-])C(C)(C)C [RG-115647],96,510,0.923,145,2169,98,0.662,832,,,,,,
"CCc1c(OC)cccc1C(=O)NN(C(=O)c1cc(C)cc(C)c1)C(C)(C)C=NNC(N)=O [RG-115653, semicarbazide of 2-ethyl-3-methoxy-benzoic acid N′-(3,5-dimethyl-benzoyl)-N′-(1,1-dimethyl-2-oxo-ethyl)-hydrazide]",,666,,,6,,,,,,,,,
Cc1ccc([N+](=O)[O-])c(C(=O)N(NC(=O)c2ccc3c(c2C)CCCO3)C(C)(C)C)c1 [RG-115664],209,620,0.846,126,1363,333,0.497,323,,,,,,
